# ChEMBL document CHEMBL1201862, “PubChem BioAssay data set” (2004)
# The source made the active and inactive calls.
# How the values were obtained:
# [1] = biological target: T1, Replicative DNA helicase DnaB (Mycobacterium tuberculosis, UniProt P9WMR3); experiment: DnaB intein splicing inhibitors, dose response, biochemical, cell-free fluorescence (AID 449749); assay type: functional
# T1 sequence (P9WMR3 whole entry): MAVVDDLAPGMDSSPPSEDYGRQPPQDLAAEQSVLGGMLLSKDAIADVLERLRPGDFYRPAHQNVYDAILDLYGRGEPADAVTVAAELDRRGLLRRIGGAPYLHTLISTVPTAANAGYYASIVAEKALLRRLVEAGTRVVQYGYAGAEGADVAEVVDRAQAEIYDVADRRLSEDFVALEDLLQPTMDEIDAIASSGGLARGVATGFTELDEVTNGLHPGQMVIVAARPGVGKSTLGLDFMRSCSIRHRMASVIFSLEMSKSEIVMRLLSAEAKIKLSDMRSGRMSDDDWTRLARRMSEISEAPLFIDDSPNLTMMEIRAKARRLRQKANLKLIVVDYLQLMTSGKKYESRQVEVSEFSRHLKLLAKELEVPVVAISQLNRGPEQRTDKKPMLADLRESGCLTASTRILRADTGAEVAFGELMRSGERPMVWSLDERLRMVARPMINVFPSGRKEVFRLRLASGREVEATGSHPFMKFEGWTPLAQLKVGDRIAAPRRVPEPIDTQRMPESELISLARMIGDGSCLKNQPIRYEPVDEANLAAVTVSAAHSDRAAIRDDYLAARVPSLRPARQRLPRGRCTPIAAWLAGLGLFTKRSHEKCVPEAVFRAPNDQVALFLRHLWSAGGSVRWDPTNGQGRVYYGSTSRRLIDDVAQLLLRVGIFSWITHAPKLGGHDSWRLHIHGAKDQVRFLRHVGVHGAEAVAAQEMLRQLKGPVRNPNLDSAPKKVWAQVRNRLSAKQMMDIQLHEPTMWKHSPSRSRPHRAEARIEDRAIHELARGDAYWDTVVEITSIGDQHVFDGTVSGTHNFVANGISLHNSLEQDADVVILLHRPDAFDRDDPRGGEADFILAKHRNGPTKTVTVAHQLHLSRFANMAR
# [2] = biological target: Induced myeloid leukemia cell differentiation protein Mcl-1 (Homo sapiens, UniProt Q07820); assay type: functional
# Sequence of Induced myeloid leukemia cell differentiation protein Mcl-1 (Q07820 whole entry): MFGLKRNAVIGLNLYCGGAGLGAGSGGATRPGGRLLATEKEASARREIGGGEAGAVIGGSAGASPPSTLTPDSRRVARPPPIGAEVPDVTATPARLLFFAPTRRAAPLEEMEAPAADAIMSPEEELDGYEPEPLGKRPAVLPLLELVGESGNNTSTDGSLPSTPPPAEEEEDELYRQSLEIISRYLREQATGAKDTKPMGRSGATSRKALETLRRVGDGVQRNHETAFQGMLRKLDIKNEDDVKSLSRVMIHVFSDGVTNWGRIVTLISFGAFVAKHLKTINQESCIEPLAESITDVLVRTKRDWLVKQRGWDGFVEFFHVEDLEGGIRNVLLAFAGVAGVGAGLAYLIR
# [3] = biological target: T2, Endoribonuclease toxin MazF (Escherichia coli K-12, UniProt P0AE70); experiment: fluorescent RNA oligo signal without MazF, dose response, counter-screen for MazEF activator project, biochemical, fluorescence, single-stranded RNase substrate (AID 588502); assay type: functional
# T2 sequence (P0AE70 whole entry): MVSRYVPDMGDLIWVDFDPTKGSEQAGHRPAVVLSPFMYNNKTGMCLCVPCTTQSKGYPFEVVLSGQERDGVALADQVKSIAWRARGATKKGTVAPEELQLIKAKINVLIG
# [4] = biological target: T3, 1-phosphatidylinositol 4,5-bisphosphate phosphodiesterase gamma-1 (Homo sapiens, UniProt P19174); experiment: Counterscreen for inhibitors of phospholipase C isozymes (PLC-B3): Fluorescence-based biochemical high throughput dose response assay to identify inhibitors of phospholipase C isozymes (PLC-gamma1).
# T3 sequence (P19174 whole entry): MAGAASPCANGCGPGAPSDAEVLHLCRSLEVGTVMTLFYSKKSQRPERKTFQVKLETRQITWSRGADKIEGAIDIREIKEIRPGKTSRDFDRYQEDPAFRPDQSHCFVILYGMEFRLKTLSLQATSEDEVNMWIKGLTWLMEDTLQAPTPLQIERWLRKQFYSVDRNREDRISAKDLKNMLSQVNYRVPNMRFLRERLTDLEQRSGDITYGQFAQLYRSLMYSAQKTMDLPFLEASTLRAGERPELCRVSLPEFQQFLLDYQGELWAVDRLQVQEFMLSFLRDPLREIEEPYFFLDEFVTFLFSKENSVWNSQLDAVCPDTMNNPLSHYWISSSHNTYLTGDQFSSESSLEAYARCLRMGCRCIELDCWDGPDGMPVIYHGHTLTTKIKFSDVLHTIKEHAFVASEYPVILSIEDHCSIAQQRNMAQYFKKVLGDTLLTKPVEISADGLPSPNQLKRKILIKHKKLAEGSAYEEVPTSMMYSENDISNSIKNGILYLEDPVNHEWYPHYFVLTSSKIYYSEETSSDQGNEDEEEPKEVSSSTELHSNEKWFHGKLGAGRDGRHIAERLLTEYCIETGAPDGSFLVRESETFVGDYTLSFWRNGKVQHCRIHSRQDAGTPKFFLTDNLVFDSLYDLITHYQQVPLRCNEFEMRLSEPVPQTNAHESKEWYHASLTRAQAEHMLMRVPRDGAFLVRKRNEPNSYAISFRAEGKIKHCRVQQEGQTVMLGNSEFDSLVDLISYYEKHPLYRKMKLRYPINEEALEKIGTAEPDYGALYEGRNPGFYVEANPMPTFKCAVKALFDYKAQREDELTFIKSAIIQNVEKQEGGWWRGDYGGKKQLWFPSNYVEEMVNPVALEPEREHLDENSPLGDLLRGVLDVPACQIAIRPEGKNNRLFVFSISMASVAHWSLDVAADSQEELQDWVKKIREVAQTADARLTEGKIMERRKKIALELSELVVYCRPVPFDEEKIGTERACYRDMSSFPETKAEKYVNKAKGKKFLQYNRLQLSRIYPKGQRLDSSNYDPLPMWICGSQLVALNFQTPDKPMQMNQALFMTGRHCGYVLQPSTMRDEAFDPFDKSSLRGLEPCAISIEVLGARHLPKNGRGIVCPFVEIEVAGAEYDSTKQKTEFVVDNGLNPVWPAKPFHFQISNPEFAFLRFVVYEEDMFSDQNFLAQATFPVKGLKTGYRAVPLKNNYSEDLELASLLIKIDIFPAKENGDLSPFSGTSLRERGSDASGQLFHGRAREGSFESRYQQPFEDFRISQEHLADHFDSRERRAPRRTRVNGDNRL
Compound,AC50 [1],IC50 [2],EC50 [3],IC50 [4]
COC(=O)c1ccc(-c2ccc(C(c3c(C)[nH][nH]c3=O)c3c(C)[nH][nH]c3=O)o2)cc1,0.595 µM (inconclusive),,,
Oc1ccc(/C=N/NC(=S)Nc2cccnc2)c(O)c1O,,19.5 µM (active),> 99 µM (inactive),> 122 µM (inactive)
